# In patent publication US20080234130A1, “Compositions providing tolerance to multiple herbicides and methods of use thereof” (priority 2005, published 2008):
# How the values were obtained:
# [1] = tested on: heterozygous GAT-HRA corn; assay: Postemergence effect of ALS herbicides, glyphosate and glufosinate (fresh weight, visual injury); settings: 200 g/ha (glyphosate 3472 g ae/ha, glufosinate ammonium 1870 g/ha), mean of four replications
# [2] = tested on: non-glyphosate resistant Conyza (Welgevallen-paraquat resistant); assay: Control of hairy fleabane by glyphosate, metsulfuron-methyl and two additives (Table 24); format: in vivo, Conyza bonariensis
# Experimental: This example included the same treatments as used in Example 11, except the treatments were carried out on a glyphosate sensitive biotype of Kleinskraalhans (Conyza bonariensis).
# • Biotype: Non-glyphosate resistant Conyza (Welgevallen-paraquat resistant) • Growth Stage: 10-15 leaf stage • Conditions: Cool and sunny • Volume rate: 200 L ha^−1 • glyphosate (ROUNDUP): 360 g a.i. L^−1
# [3] = tested on: non-transgenic control soybeans; assay: Postemergence greenhouse spray of soybeans, visual injury (Table 11); settings: 8960 g/ha
# Experimental: (§1) Young regenerated transgenic plants were sprayed with 1× glyphosate (1× rate of glyphosate is 1120 g/ha of glyphosate isopropylamine) to cull segregants. Four replications were performed for each treatment. Plants were then treated with various herbicides, including glyphosate and ALS-inhibitor herbicides.
# (§2) Six soybean seeds from each variety to be assayed were planted 1 cm deep in 5.5 (13.97 cm) inch square plastic container of a synthetic growth medium. […] When possible, containers were thinned to two uniform plants. Non-transgenic lines were thinned to two uniform plants per container.
# (§3) Results are expressed below in Table 11 as the mean of four replications.
# GAT-HRA soybeans = assay: as above; settings: 8960 g/ha
# Experimental: as §1, §2, §3
# [4] = tested on: parent elite stiff stalk inbred corn; assay: Postemergence effect of ALS herbicides, glyphosate and glufosinate (fresh weight, visual injury); settings: 200 g/ha (glyphosate 3472 g ae/ha, glufosinate ammonium 1870 g/ha), mean of four replications
# [5] = tested on: untransformed Coker 312 cotton; assay: Greenhouse over the top herbicide spray of cotton; format: in vivo, Gossypium hirsutum; settings: glyphosate over the top at 4-6 leaf stage, 1.5 lb acid equivalent per acre; 2 weeks after application
# Description: (§4) Transformed cotton plants were rooted and then transferred to soil for further growth. Plants were then subjected to herbicide spray treatments in a greenhouse. […] Untransformed Coker 312 control plants were dead 2 weeks after glyphosate application. […] Plants transformed with both GAT and HRA were further subjected to an “over the top” application of the sulfonylurea herbicide rimsulfuron at a rate of 16 g active ingredient/hectare. […] In further experiments 32 g ai/ha rimsulfuron were applied to the cotton.
# [6] = tested on: GAT-HRA transgenic cotton plants; assay: Greenhouse over the top herbicide spray of cotton; format: in vivo, Gossypium hirsutum; settings: glyphosate over the top at 4-6 leaf stage, 1.5 lb acid equivalent per acre; 14 days after application
# Description: as §4
# [7] = tested on: infected GS3 embryos with the GAT construct; assay: Glyphosate selection of embryos infected with the GAT construct; format: cell-based, maize; settings: media with 1.0 mM or 2.0 mM glyphosate, about 40 days culture
# Experimental: (§5) A glyphosate kill curve was established by testing non-transformed embryos response on media with different levels of glyphosate. GS3 embryos were isolated from an immature ear and placed onto media containing glyphosate at 0.0, 0.5, 1.0, and 2.0 mM. After about 40 days culture, the response of the embryos were observed and recorded. Similarly, infected GS3 embryos with the GAT construct were placed onto media containing glyphosate at 0.0, 0.5, 1.0, and 2.0 mM. After about 40 days culture, the response of the infected embryos were observed and recorded (FIG. 7).
# [8] = tested on: non-transformed GS3 embryos; assay: Glyphosate kill curve on culture media; format: cell-based, maize; settings: about 40 days culture
# Experimental: as §5
# [9] = tested on: Fairview (Tulbagh) ryegrass resistant to glyphosate, paraquat, and ACCase-inhibitors; assay: Control of resistant ryegrass by glyphosate, metsulfuron-methyl and two additives (Table 25); format: in vivo; settings: Trial 1: glyphosate (ROUNDUP) 0.5 L/ha
# Experimental: This example was conducted on one of the most resistant ryegrass types in the world, ryegrass resistant to non-selective herbicides, e.g., Fairview (Tulbagh), which is resistant to glyphosate, paraquat, and ACCase-inhibitors. In this example, the addition of metsulfuron-methyl (BRUSH-OFF®) at 5 and 10 g ha^−1, with 1% ammonium sulfate-based adjuvant (ADD-UP®) to 0.5 L Roundup improved control by 44% (e.g., 50% to 94%).
# • Biotype: Fairview (Tulbagh) resistant to glyphosate, paraquat, and ACCase-inhibitors. • Growth Stage: 10-15 leaf stage • Conditions: Cool and sunny • 15 Volume rate: 200 L ha^−1 • glyphosate (ROUNDUP): 360 g ai L^−1
# [10] = tested on: non-glyphosate resistant ryegrass (70-04); assay: Control of ryegrass by glyphosate, metsulfuron-methyl and two additives (Table 23); format: in vivo; settings: Trial 1: glyphosate (SCAT) 0.5 L/ha
# Experimental: The example was conducted on non-glyphosate resistant ryegrass. As provided in Table 23, all treatments that included glyphosate [180 g a.i. L ha^−1 (0.5 L glyphosate (SCAT®))] plus metsulfuron-methyl (BRUSH-OFF®) (5 and 10 g ha^−1) gave 100% control of the ryegrass.
# • Biotype: non-glyphosate resistant ryegrass (70-04) • Population profile: Rup 0.25 control (%) 6.25 • Rup 0.5 control (%) 81.25 • Rup 1.0 control (%) 93.75 • Growth Stage: 5-6 leaf stage • Conditions: hot and sunny • Volume rate: 200 L ha^−1
# [11] = tested on: Fairview (Tulbagh) ryegrass resistant to glyphosate, paraquat, and ACCase-inhibitors; assay: Control of resistant ryegrass by glyphosate and representative SU's (Table 26); format: in vivo; settings: Trial 2: glyphosate (SCAT) 6 L/ha; sprayed with 1% ADD-UP
# Description: In this example, four different SU's were applied together with glyphosate (SCAT®) on the resistant ryegrass. The results as to the best SU partner for glyphosate were inconclusive, but the average benefit of applying an SU with glyphosate on herbicide resistant ryegrass was 39% (e.g., 34% control with glyphosate (SCAT®) only and 57-83% control with glyphosate (SCAT®) plus metsulfuron-methyl (BRUSH-OFF®), chlorsulfuron (GLEAN®), or triasulfuron (LOGRAN®)).
# • Biotype: Fairview (Tulbagh) resistant to glyphosate, paraquat, and ACCase-inhibitors. • Growth Stage: 4 leaf stage • Conditions: Cool and sunny • Volume rate: 200 L ha^−1 • All treatments sprayed with 1% ADD-UP
# [12] = 2 weeks after treatment, 0% no injury, 100% plant death
compound,measurement,setting,value
"O=C(O)CNCP(=O)(O)O [Glyphosate, N-phosphonomethylglycine]",% Visual Injury Heterozygous GAT-HRA,[1]; [12],10%
same,Fresh Weight (g) Heterozygous GAT-HRA,"[1]; applied two weeks after planting, fresh shoots 2 weeks after treatment, untreated 98.8 g",97.4 g
same,plants killed,"[2]; glyphosate on its own, 10-15 leaf stage, 200 L ha^-1",1 out of 16 plants
same,% Visual Injury,"[3]; STS ®, Line # 25",100%
same,% Visual Injury,"[3]; STS ®, Line # 46",100%
same,% Visual Injury,"[3]; STS ®, mean",100%
same,% Visual Injury,"[3]; Wild Type, Line # 82",100%
same,% Visual Injury,"[3]; Wild Type, Line Jack",100%
same,% Visual Injury,"[3]; Wild Type, mean",100%
same,% Visual Injury,"GAT-HRA soybeans; Event # 59, Line # 21",40%
same,% Visual Injury,"GAT-HRA soybeans; Event # 59, Line # 28",37%
same,% Visual Injury,"GAT-HRA soybeans; Event # 59, mean",38%
same,% Visual Injury,"GAT-HRA soybeans; Event # 60, Line # 07",19%
same,% Visual Injury,"GAT-HRA soybeans; Event # 60, Line # 11",11%
same,% Visual Injury,"GAT-HRA soybeans; Event # 60, Line # 22",11%
same,% Visual Injury,"GAT-HRA soybeans; Event # 60, Line # 35",9%
same,% Visual Injury,"GAT-HRA soybeans; Event # 60, Line # 41",13%
same,% Visual Injury,"GAT-HRA soybeans; Event # 60, Line # 46",20%
same,% Visual Injury,"GAT-HRA soybeans; Event # 60, Line # 70",9%
same,% Visual Injury,"GAT-HRA soybeans; Event # 60, Line # 75",14%
same,% Visual Injury,"GAT-HRA soybeans; Event # 60, Line # 77",19%
same,% Visual Injury,"GAT-HRA soybeans; Event # 60, Line # 79",18%
same,% Visual Injury,"GAT-HRA soybeans; Event # 60, Line # 82",20%
same,% Visual Injury,"GAT-HRA soybeans; Event # 60, Line # 84",22%
same,% Visual Injury,"GAT-HRA soybeans; Event # 60, mean",15%
same,% Visual Injury,"GAT-HRA soybeans; Event # 61, Line # 02",10%
same,% Visual Injury,"GAT-HRA soybeans; Event # 61, Line # 02B",10%
same,% Visual Injury,"GAT-HRA soybeans; Event # 61, Line # 05",11%
same,% Visual Injury,"GAT-HRA soybeans; Event # 61, Line # 14",10%
same,% Visual Injury,"GAT-HRA soybeans; Event # 61, Line # 18",10%
same,% Visual Injury,"GAT-HRA soybeans; Event # 61, Line # 24",60%
same,% Visual Injury,"GAT-HRA soybeans; Event # 61, Line # 33",84%
same,% Visual Injury,"GAT-HRA soybeans; Event # 61, Line # 34",23%
same,% Visual Injury,"GAT-HRA soybeans; Event # 61, Line # 47",15%
same,% Visual Injury,"GAT-HRA soybeans; Event # 61, Line # 49",9%
same,% Visual Injury,"GAT-HRA soybeans; Event # 61, Line # 51",10%
same,% Visual Injury,"GAT-HRA soybeans; Event # 61, Line # 60",16%
same,% Visual Injury,"GAT-HRA soybeans; Event # 61, Line # 62",6%
same,% Visual Injury,"GAT-HRA soybeans; Event # 61, Line # 99",10%
same,% Visual Injury,"GAT-HRA soybeans; Event # 61, mean",20%
same,% Visual Injury,"GAT-HRA soybeans; Event # 64, Line # 41",20%
same,% Visual Injury,"GAT-HRA soybeans; Event # 64, Line # 47",10%
same,% Visual Injury,"GAT-HRA soybeans; Event # 64, mean",14%
same,% Visual Injury Parent elite stiff stalk inbred,[4]; [12],100%
same,Fresh Weight (g) Parent elite stiff stalk inbred,"[4]; applied two weeks after planting, fresh shoots 2 weeks after treatment, untreated 76.4 g",1.0 g
same,effect on untransformed Coker 312 control plants,[5],dead
same,GAT-HRA transgenic plants with no deleterious symptoms,[6],approximately 50%
same,resistant callus initiation of infected embryos,[7],some embryos initiated resistant callus
same,callus growth,[8]; media with 1.0 and 2.0 mM glyphosate,very little callus growth
same,embryos showing callus initiation,[8]; medium with 0.5 mM glyphosate,about half of the embryos
O=C(O)CNCP(=O)(O)O [glyphosate (ROUNDUP ®)],Control (%),[2]; Trial 1: glyphosate (ROUNDUP) 0.5 L/ha,12%
same,Control (%),[9],50%
O=C(O)CNCP(=O)(O)O [glyphosate (SCAT ®)],Control (%),[10],94%
same,Control (%),[11],34%
